Source: US12685777B2, “Compositions, systems, and methods for modulating a target gene” (The Board of Trustees of the Leland Stanford Junior …, priority 2022, dated 2026)
“Also recorded” adds a separate entry of the source.

How the values were obtained:
[1] = molecular target: T1, bromodomain 1 of BRD4 and BTB domain of BCL6 (Homo sapiens, UniProt O60885+P41182, C67R/C84N/C8Q); experiment: TR-FRET assay of ternary complex formation; format: binding; conditions: 1 hr at room temperature, 520 nm/490 nm ratio
T1 construct: contains amino acids 5-129 with three mutations, C8Q, C67R, C84N
Experimental: Reaction was incubated for 1 hr at room temperature, and subsequently the fluorescence at 520 nm and 490 nm was measured. The 520 nm/490 nm ratio is plotted respective to DMSO control. The two lower curves are performed by addition of Neg1 and Neg2 instead of JWZ-7-7. […] The structure of JWZ-7-7 is provided in FIG. 2 and the structures of Neg1 and Neg2 are provided below:
Each reaction contained 100 nM BRD4^BD1, 100 nM BCL6BTB-Avi-Biot, 20 nM Streptavidin-FITC (Thermo #SA1001), and 1:400 anti-6×His terbium antibody (PerkinElmer #61H12TLF) in 10 μL of buffer containing 20 mM HEPES, 150 mM NaCl, 0.1% BSA, 0.1% NP-40, and 1 mM TCEP in a 384-well plate. Protein was incubated with drug digitally dispensed (Tecan D300e) for 1 hour in the dark at room temperature before excitation at 337 nm and measurement of emission at 520 nm (FITC) and 490 nm (terbium) with a PHERAstar FS plate reader (BMG Labtech). The ratio of signal at 520 nm to 490 nm was calculated and normalized to DMSO-treated conditions, and plotted.

DMS-79 = experiment: Dose response on viability of small cell lung cancer line, resazurin assay; format: cell-based; conditions: Homo sapiens; DMS-79, 72 h treatment
Experimental: (§1) IC50 of JWZ-7-7, BI-3812, JQ1, and combinations were calculated based on a dose response curve on three small cell lung cancer lines (FIG. 5). The dose response curve on viability was performed in technical replicates and biological triplicate after treating cells for 72 hours across a broad range of concentrations via serial dilutions. Viable cells were measured after treatment via a resazurin assay. The signal for viable assays was normalized to the DMSO treated negative control. A four-parameter non-linear fit was performed to fit a curve to calculate the IC50 for each of the cell lines. The table below describes the calculated IC50 across JWZ-7-7, JQ1, BI-3812 and combination of JQ1 and BI-3812 after 72 h treatment in technical replicates and biological triplicates.

NCI-H1105 = experiment: as above; format: cell-based; conditions: NCI-H1105, 72 h treatment; read-out: IC50
Experimental: as §1

NCI-H2196 = experiment: as above; format: cell-based; conditions: Homo sapiens; NCI-H2196, 72 h treatment
Experimental: as §1

[2] = tested on: MYC, FOXO3, p21, BCL6, BRD4 protein levels in KARPAS422 and SUDHL5; experiment: Western blots of target proteins in DLBCL cells; format: cell-based, human; conditions: titrated against constant 10 nM TCIP1, 8 hours
Experimental: Cells were plated at 1 M/mL and treated with drug at indicated timepoints and doses. 2 M Cells were harvested on ice in RIPA buffer (50 mM Tris-HCl pH 8, 150 mM NaCl, 1% NP-40, 0.1% DOC, 1% SDS, protease inhibitor cocktail (homemade), 1 mM DTT) and 1:200 benzonase (Sigma #E1014) was added and incubated for 20 minutes. After 10 minute centrifugation at 14,000 g and 4° C., the supernatant was collected and protein concentration was measured by Bradford.
Because a high percentage of the TCIP1-treated cells contain fragmented DNA by TUNEL assay at 24 hours (FIG. 31, Panel E), many of the “reduced genes” could reflect DNA fragmentation as part of the apoptotic process and digestion to mononucleosomes. Among the group of genes whose expression was most reduced were MYC and its targets (FIGS. 33B, 36C). The top 100 most TCIP1-reduced genes were examined using ChIP-seq data of human transcription factors in blood cancer cell lines, and found the promoters of TCIP1-inhibited genes highly enriched for MYC binding in multiple datasets (FIG. 33, Panel C). This is significant since many DLBCLs are considered to be MYC-dependent.
Signaling via NF-kB is known to be repressed by BCL6.

DLBCL cell lines = experiment: Chemical rescue: competitive titration of JQ1 or Bl3812 against the TCIP; format: cell-based; conditions: titrated against constant JWZ-7-7 / TCIP1

Row | SMILES | Ternary complex formation (TR-FRET) [1] | other results
1 | CNC(=O)COc1cc2cc(Nc3nc(N4CCC(C(=O)NCCCN(C)CCCNC(=O)C[C@@H]5N=C(c6ccc(Cl)cc6)c6c(sc(C)c6C)-n6c(C)nnc65)CC4)ncc3Cl)cc(OC)c2n(C)c1=O [JWZ-7-100, (S)-1-(5-chloro-4-((8-methoxy-1-methyl-3-(2-(methylamino)-2-oxoethoxy)-2-oxo-1,2-dihydroquinolin-6-yl)amino)pyrimidin-2-yl)-N-(3-((3-(2-(4-(4-chlorophenyl)-2,3,9-trimethyl-6H-thieno[3,2-f][1,2,4]triazolo[4,3-a][1,4]diazepin-6-yl)acetamido)propyl)(methyl)amino)propyl)piperidine-4-carboxamide] | showed ternary complex formation | –
2 | CNC(=O)COc1cc2cc(Nc3nc(N4CCC(C(=O)N5CCC6(CC5)CN(CCNC(=O)C[C@@H]5N=C(c7ccc(Cl)cc7)c7c(sc(C)c7C)-n7c(C)nnc75)C6)CC4)ncc3Cl)cc(OC)c2n(C)c1=O [JWZ-7-98, (S)-2-((6-((5-chloro-2-(4-(2-(2-(2-(4-(4-chlorophenyl)-2,3,9-trimethyl-6H-thieno[3,2-f][1,2,4]triazolo[4,3-a][1,4]diazepin-6-yl)acetamido)ethyl)-2,7-diazaspiro[3.5]nonane-7-carbonyl)piperidin-1-yl)pyrimidin-4-yl)amino)-8-methoxy-1-methyl-2-oxo-1,2-dihydroquinolin-3-yl)oxy)-N-methylacetamide] | showed ternary complex formation | –
3 | CNC(=O)COc1cc2cc(Nc3nc(N4CCC(C(=O)N(C)C)CC4)ncc3Cl)cc(OC)c2n(C)c1=O [BI-3812] | – | IC50 (DMS-79): 6.1 µM; IC50 (NCI-H1105): 4.3 µM; IC50 (NCI-H2196): 3.5 µM
4 | CNC(=O)COc1cc2cc(Nc3nc(N4CCC(C(=O)NCCCCCCNC(=O)C[C@@H]5N=C(c6ccc(Cl)cc6)c6c(sc(C)c6C)-n6c(C)nnc65)CC4)ncc3Cl)cc(OC)c2n(C)c1=O [JWZ-7-6, (S)-1-(5-chloro-4-((8-methoxy-1-methyl-3-(2-(methylamino)-2-oxoethoxy)-2-oxo-1,2-dihydroquinolin-6-yl)amino)pyrimidin-2-yl)-N-(6-(2-(4-(4-chlorophenyl)-2,3,9-trimethyl-6H-thieno[3,2-f][1,2,4]triazolo[4,3-a][1,4]diazepin-6-yl)acetamido)hexyl)piperidine-4-carboxamide] | showed ternary complex formation | –
5 | CNC(=O)COc1cc2cc(Nc3nc(N4CCC(C(=O)NCCCOCCCNC(=O)C[C@@H]5N=C(c6ccc(Cl)cc6)c6c(sc(C)c6C)-n6c(C)nnc65)CC4)ncc3Cl)cc(OC)c2n(C)c1=O [JWZ-7-97, (S)-1-(5-chloro-4-((8-methoxy-1-methyl-3-(2-(methylamino)-2-oxoethoxy)-2-oxo-1,2-dihydroquinolin-6-yl)amino)pyrimidin-2-yl)-N-(3-(3-(2-(4-(4-chlorophenyl)-2,3,9-trimethyl-6H-thieno[3,2-f][1,2,4]triazolo[4,3-a][1,4]diazepin-6-yl)acetamido)propoxy)propyl)piperidine-4-carboxamide] | showed ternary complex formation | –
6 | CNC(=O)COc1cc2cc(Nc3nc(N4CCC(C(=O)NCCCCCCCCCCNC(=O)C[C@@H]5N=C(c6ccc(Cl)cc6)c6c(sc(C)c6C)-n6c(C)nnc65)CC4)ncc3Cl)cc(OC)c2n(C)c1=O [JWZ-7-20, (S)-1-(5-chloro-4-((8-methoxy-1-methyl-3-(2-(methylamino)-2-oxoethoxy)-2-oxo-1,2-dihydroquinolin-6-yl)amino)pyrimidin-2-yl)-N-(10-(2-(4-(4-chlorophenyl)-2,3,9-trimethyl-6H-thieno[3,2-f][1,2,4]triazolo[4,3-a][1,4]diazepin-6-yl)acetamido)decyl)piperidine-4-carboxamide] | showed ternary complex formation | –
7 | CNC(=O)COc1cc2cc(Nc3nc(N4CCC(C(=O)N(C)C)CC4)ncc3Cl)cc(OC)c2n(C)c1=O [Bl3812] | – | Reversal of TCIP1-induced protein changes [2]: reversed p21 upregulation, FOXO3 upregulation, and MYC downregulation; Rescue of TCIP-induced cell death (DLBCL cell lines): rescue cell death; also recorded: prevented death by TCIP1
8 | CNC(=O)COc1cc2cc(Nc3nc(N4CCC(C(=O)NCCCCCCCCCNC(=O)C[C@@H]5N=C(c6ccc(Cl)cc6)c6c(sc(C)c6C)-n6c(C)nnc65)CC4)ncc3Cl)cc(OC)c2n(C)c1=O [JWZ-7-15, (S)-1-(5-chloro-4-((8-methoxy-1-methyl-3-(2-(methylamino)-2-oxoethoxy)-2-oxo-1,2-dihydroquinolin-6-yl)amino)pyrimidin-2-yl)-N-(9-(2-(4-(4-chlorophenyl)-2,3,9-trimethyl-6H-thieno[3,2-f][1,2,4]triazolo[4,3-a][1,4]diazepin-6-yl)acetamido)nonyl)piperidine-4-carboxamide] | showed ternary complex formation | –
9 | CNC(=O)COc1cc2cc(Nc3nc(N4CCN(CCCCCCCCNC(=O)C[C@@H]5N=C(c6ccc(Cl)cc6)c6c(sc(C)c6C)-n6c(C)nnc65)CC4)ncc3Cl)cc(OC)c2n(C)c1=O [JWZ-7-23, (S)-2-((6-((5-chloro-2-(4-(8-(2-(4-(4-chlorophenyl)-2,3,9-trimethyl-6H-thieno[3,2-f][1,2,4]triazolo[4,3-a][1,4]diazepin-6-yl)acetamido)octyl)piperazin-1-yl)pyrimidin-4-yl)amino)-8-methoxy-1-methyl-2-oxo-1,2-dihydroquinolin-3-yl)oxy)-N-methylacetamide] | showed ternary complex formation | –
10 | CNC(=O)COc1cc2cc(Nc3nc(N4CCC(C(=O)NCCCN5CCN(CCCNC(=O)C[C@@H]6N=C(c7ccc(Cl)cc7)c7c(sc(C)c7C)-n7c(C)nnc76)CC5)CC4)ncc3Cl)cc(OC)c2n(C)c1=O [JWZ-7-14, (S)-1-(5-chloro-4-((8-methoxy-1-methyl-3-(2-(methylamino)-2-oxoethoxy)-2-oxo-1,2-dihydroquinolin-6-yl)amino)pyrimidin-2-yl)-N-(3-(4-(3-(2-(4-(4-chlorophenyl)-2,3,9-trimethyl-6H-thieno[3,2-f][1,2,4]triazolo[4,3-a][1,4]diazepin-6-yl)acetamido)propyl)piperazin-1-yl)propyl)piperidine-4-carboxamide] | showed ternary complex formation | –
11 | CNC(=O)COc1cc2cc(Nc3nc(N4CCC(C(=O)NCCN5CCN(CCNC(=O)C[C@@H]6N=C(c7ccc(Cl)cc7)c7c(sc(C)c7C)-n7c(C)nnc76)CC5)CC4)ncc3Cl)cc(OC)c2n(C)c1=O [JWZ-7-13, (S)-1-(5-chloro-4-((8-methoxy-1-methyl-3-(2-(methylamino)-2-oxoethoxy)-2-oxo-1,2-dihydroquinolin-6-yl)amino)pyrimidin-2-yl)-N-(2-(4-(2-(2-(4-(4-chlorophenyl)-2,3,9-trimethyl-6H-thieno[3,2-f][1,2,4]triazolo[4,3-a][1,4]diazepin-6-yl)acetamido)ethyl)piperazin-1-yl)ethyl)piperidine-4-carboxamide] | showed ternary complex formation | –
12 | CNC(=O)COc1cc2cc(Nc3nc(N4CCN(CCCCCCCCCCCNC(=O)C[C@@H]5N=C(c6ccc(Cl)cc6)c6c(sc(C)c6C)-n6c(C)nnc65)CC4)ncc3Cl)cc(OC)c2n(C)c1=O [JWZ-7-22, (S)-2-((6-((5-chloro-2-(4-(11-(2-(4-(4-chlorophenyl)-2,3,9-trimethyl-6H-thieno[3,2-f][1,2,4]triazolo[4,3-a][1,4]diazepin-6-yl)acetamido)undecyl)piperazin-1-yl)pyrimidin-4-yl)amino)-8-methoxy-1-methyl-2-oxo-1,2-dihydroquinolin-3-yl)oxy)-N-methylacetamide] | showed ternary complex formation | –
